Results as given in publication PMC3832412 (PLoS ONE, 2013).
Entries after “also recorded” stand apart in the source; their conditions may differ.

Legend:
[1] = tested on: NMDAR in primary rat hippocampal neurons; type: cell-based, rat (Sprague-Dawley)
[2] = tested on: NMDAR in primary rat hippocampal neurons; type: cell-based, rat (Sprague-Dawley); remark: listed apart in the source

Substance: GIKAQRDILYYγGγGγEHI-CONH2 [scrambled peptide]
- effect on iCa^2+ levels [1]: did not result in any decrease in iCa^2+ levels; also recorded: no significant differences; also recorded: no such inhibitory activity
- inhibition of NMDA-evoked current [2]: did not inhibit NMDA-evoked currents; also recorded: no such inhibitory activity
